Results taken from patent publication US6995190B2 (Veterinary Solutions, priority 2001, dated 2006).

Key:
platelet cyclo-oxygenase = conditions: horse, cited from earlier work
swine influenza = format: in vivo, finishing hogs
[1] = tested on: PRRS (Porcine Respiratory and Reproductive Syndrome) Virus; test: PRRS virus outbreak in swine nursery, Ketoprofen orally; format: in vivo; conditions: orally for 7 days, along with the same other therapy as controls
Excerpt: A swine client with a 10,000 head nursery was experiencing severe mortality due to a PRRS (Porcine Respiratory and Reproductive Syndrome) Virus outbreak. They had used antibiotics with only partial success and were seeing mortalities as high as 30 percent in the group. […] We also saw less chronic pigs in the treatment group 3% versus 15% in the controls.

[2] = tested on: horse with chronic laminitis; test: Horse with chronic laminitis, Ketoprofen in the water, acceptance and intake; format: in vivo; conditions: 1 mg per pound in the water for 2 weeks
[3] = 1 mg/pound for 3 days orally through the drinking water

SMILES: CN=C1CCN(c2cccc(C(F)(F)F)c2)N1 [BW540C]
- reductions in exudates eicosanoid concentrations (platelet cyclo-oxygenase; carrageenin tissue-cage exudate): less pronounced
- duration of inhibition of platelet cyclo-oxygenase (platelet cyclo-oxygenase; oral): 24 h

SMILES: CC(C(=O)O)c1cccc(C(=O)c2ccccc2)c1 (stereo not drawn) [Ketoprofen]
- morbidity at the time of the outbreak (swine influenza; [3]): 10%
- mortality (swine influenza; [3]): 2.1%
- average time to market, less than the control group (swine influenza; 1 mg/pound for 3 days orally through the drinking water, 150 pound finishing hogs marketed at 260 pounds): 9 days
- follow-up mass medication with antibiotics (swine influenza; two weeks after the outbreak): did not require any mass medication with antibiotics
- chronic pigs [1]: 3%
- mortality [1]: 7%
- pain compared with previous treatment (phenylbutazone) [2]: less painful
